Assay results published in the NIST ThermoML archive (doi:10.1021/je400188h).
± gives the expanded uncertainty stated by the source.

Conditions: Crystal; visual observation

## O=C(O)[C@@H]1Cc2ccccc2N1 [(S)-indoline-2-carboxylic acid]
  Normal melting temperature: 177.00 ± 0.5 °C
